The subject of the series is PCX mRNA in Ishikawa cells. Description: Transfection of miRNA mimics into Ishikawa cells, PCX mRNA by real-time RT-PCR. The format is cell-based, human. As to conditions: mimic 5 μm, 24 h after transfection. The protocol: To confirm that these two miRNAs can directly down-regulate PCX, mimics of these miRNAs were transfected into a human endometrial epithelial Ishikawa cell line and the impact on the level of PCX expression examined.
Ishikawa cells were cultured overnight in a 12-well plate (3.0×10^5 per well) in complete medium containing MEM (Thermo Fisher Scientific) supplemented with 10% FCS, 1% L-glutamine (Sigma) and 1% antibiotic-antimycotic. The following day, cells were replenished with Opti-MEM for transfection. Control and miRNA mimics (5 μm, all from Thermo Fisher Scientific) were transfected into Ishikawa cells using Lipofectamine RNAiMAX Transfection Reagent (Thermo Fisher Scientific) for 24, 48, 72 h respectively, and PCX mRNA levels were examined by real-time RT-PCR. Combination of the two miRNAs (5 μm each) was also tested.
For orientation: Real-time PCR tracks product formation cycle by cycle.

Consider “miR-145: miRNA mimic (Thermo Fisher Scientific); sequence GUCCAGUUUUCCCAGGAAUCCCU, SEQ ID NO: 33 (chemistry not given here)”, for which the “repression of PCX mRNA” value is listed as ~34%.

Consider “miR-199: miRNA mimic (Thermo Fisher Scientific); sequence CCCAGUGUUCAGACUACCUGUUC, SEQ ID NO: 31 (chemistry not given here)”, for which the “repression of PCX mRNA” value is ~34%.

These data come from patent US20220268780A1, “METHODS OF PREDICTING ENDOMETRIAL RECEPTIVITY” (HUDSON INSTITUTE OF MEDICAL RESEARCH, priority 2019, published 2022).
